Consider 25 compounds from patent US11136317B2, “NADPH oxidase 4 inhibitors” (ACTELION PHARMACEUTICALS LTD, priority 2015, dated 2021).

The test has as its target T1, human NOX4 (Homo sapiens, UniProt Q9NPH5).
T1 construct: The full-length human NOX4 (NM_016931.3) transcript was cloned; expressed in transfected cells
T1 sequence (Q9NPH5 1-578): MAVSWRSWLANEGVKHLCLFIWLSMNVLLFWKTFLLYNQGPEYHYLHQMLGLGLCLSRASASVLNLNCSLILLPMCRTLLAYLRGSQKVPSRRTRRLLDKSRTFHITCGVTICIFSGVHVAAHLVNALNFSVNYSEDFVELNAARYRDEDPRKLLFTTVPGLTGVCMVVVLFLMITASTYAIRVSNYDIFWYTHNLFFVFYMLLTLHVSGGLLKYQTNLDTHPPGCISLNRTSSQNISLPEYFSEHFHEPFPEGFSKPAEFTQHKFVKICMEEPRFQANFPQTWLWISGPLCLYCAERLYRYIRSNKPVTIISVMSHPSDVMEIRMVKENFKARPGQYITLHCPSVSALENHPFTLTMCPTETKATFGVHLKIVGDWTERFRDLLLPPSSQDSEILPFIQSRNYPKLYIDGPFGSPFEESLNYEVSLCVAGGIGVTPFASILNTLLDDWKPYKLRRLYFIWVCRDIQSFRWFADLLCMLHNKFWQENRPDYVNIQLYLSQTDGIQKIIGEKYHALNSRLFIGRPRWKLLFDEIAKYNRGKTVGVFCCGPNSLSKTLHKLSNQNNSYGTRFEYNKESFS
T1 sequence (P13498 1-195 partner): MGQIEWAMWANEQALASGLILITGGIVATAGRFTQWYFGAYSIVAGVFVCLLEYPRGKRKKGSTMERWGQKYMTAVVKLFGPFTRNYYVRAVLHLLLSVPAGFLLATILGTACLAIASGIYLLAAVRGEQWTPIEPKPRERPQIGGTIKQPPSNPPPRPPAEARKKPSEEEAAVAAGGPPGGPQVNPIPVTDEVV
Briefly: Amplex Red activity assay (cellular H2O2 formation in hNOX4 T-REx-293 cells). The class given is cell-based. The settings on record: tet-induced 24 h, extracellular H2O2 by Amplex Red, 60 min 25° C., geometric mean if determined several times. The protocol:
The nucleotide sequence and the amino acid sequence for the human NOX4 (Entrez Gene ID 50507) is known in the art and are published. The potency and efficacy of the compounds of Formula (I) are assessed for their potential to inhibit the formation of ROS in a cellular assay.
The full-length human NOX4 (NM_016931.3) transcript was cloned into the pDONR™221 vector (Life Technologies™) in order to generate, by site-specific integration according to the recommendation of the manufacturer (Life Technologies™), a recombinant pJTI™ R4 DEST CMV-TO vector containing the NOX4 coding information controlled by tetracycline (tet) responsive tet-on cytomegalovirus promoter (hNOX4 pDEST).
Modified human embryonic kidney cells overexpressing a tet receptor (Jump-In™ T-REx™ HEK293; Life Technologies™) were transfected with the NOX4-containing tet-on vector (hNOX4 pDEST) to generate a stable recombinant cell pool (hNOX4 T-REx-293). hNOX4 T-REx-293 cells were cultured in DMEM containing 4.5 g/L glucose supplemented with 10% fetal calf serum, penicillin (100 U/mL), streptomycin (100 μg/mL), geneticin (1 mg/mL), and blasticidin (5 μg/mL) at 37° C. in air with 5% CO2. Human Nox4 expression was induced with tet (1 μg/mL) for 24 h and extracellular H2O2 was quantified using the Amplex Red reagent (Life Technologies™).
Compounds were prepared as 10 mM stock solution in DMSO vehicle, then diluted in 384-well plates using DMSO followed by a transfer of the dilutions into the assay plate. As a control, diphenylene iodonium was included at a final concentration of 10 μM. Compounds were tested at 10 concentrations in the range from 50 μM highest to 100 nM lowest.
Cellular H2O2 formation was measured using the Amplex Red reagent. […] Cells were seeded into 384-well clear bottom plates at a density of 20 000 cells per well in presence or absence of compounds. […] All wells contained 1.25% of DMSO. The plates were kept at 25° C. for 60 min. The amount of produced resorufin was detected with the Synergy™ Mx microplate reader (BioTek) with excitation and emission wavelengths set to 550 nm and 600 nm, respectively. Fluorescence was measured for each well and the fluorescence at 600 nm wavelength was compared to the fluorescence of the vehicle in place of compound. Inhibitory activities of example compounds were determined by calculating the IC50 value (the concentration of compound needed to inhibit 50% of the enzyme activity). The calculated IC50 values may fluctuate depending on the daily cellular assay performance. Fluctuations of this kind are known to those skilled in the art.
Broadly, the IC50 is the point on the concentration scale where inhibition reaches its midpoint. With `CCOCC1CCCN1c1nc2cc(NC(=O)c3ccc4c(c3)CCO4)ccc2o1` (stereo not shown) [Example 51, 2,3-Dihydro-benzofuran-5-carboxylic acid [2-(2-ethoxymethyl-pyrrolidin-1-yl)-benzooxazol-5-yl]-amide], the IC50 came to 4570 nM.
With `CN(CC1(F)COC1)c1nc2cc(NC(=O)c3ccc4c(c3)CCO4)ccc2o1` [Example 52, 2,3-Dihydro-benzofuran-5-carboxylic acid {2-[(3-fluoro-oxetan-3-ylmethyl)-methyl-amino]-benzooxazol-5-yl}-amide], the IC50 worked out at 899 nM.
In the case of `O=C(Nc1ccc2oc(N3CCN(C4COC4)CC3)nc2c1)c1ccc2c(c1)CCO2` [Example 53, 2,3-Dihydro-benzofuran-5-carboxylic acid [2-(4-oxetan-3-yl-piperazin-1-yl)-benzooxazol-5-yl]-amide], the IC50 turned out to be 913 nM.
The result for `CN(c1nc2cc(NC(=O)c3ccc4c(c3)CCO4)ccc2o1)C1CCN(C2COC2)CC1` [Example 54, 2,3-Dihydro-benzofuran-5-carboxylic acid {2-[methyl-(1-oxetan-3-yl-piperidin-4-yl)-amino]-benzooxazol-5-yl}-amide] reads 2910 nM; that for `O=C(Nc1ccc2oc(N3CCCC4(COC4)C3)nc2c1)c1ccc2c(c1)CCO2` [Example 55, 2,3-Dihydro-benzofuran-5-carboxylic acid [2-(2-oxa-6-aza-spiro[3.5]non-6-yl)-benzooxazol-5-yl]-amide], 400 nM; that for `CN(CC1COC1)c1nc2cc(NC(=O)c3ccc4c(c3)CCO4)ccc2o1` [Example 56, 2,3-Dihydro-benzofuran-5-carboxylic acid [2-(methyl-oxetan-3-ylmethyl-amino)-benzooxazol-5-yl]-amide], 906 nM.
As for `CN(c1nc2cc(NC(=O)c3ccc4c(c3)CCO4)ccc2o1)C1COC1` [Example 57, 2,3-Dihydro-benzofuran-5-carboxylic acid [2-(methyl-oxetan-3-yl-amino)-benzooxazol-5-yl]-amide], the IC50 is 681 nM.
The result for `COCC1CCCN1c1nc2cc(NC(=O)c3ccc4c(c3)CCO4)ccc2o1` (stereo not shown) [Example 58, 2,3-Dihydro-benzofuran-5-carboxylic acid [2-(2-methoxymethyl-pyirolidin-1-yl)-benzooxazol-5-yl]-amide] reads 1330 nM; that for `COC1CCCN(c2nc3cc(NC(=O)c4ccc5c(c4)CCO5)ccc3o2)C1` (stereo not shown) [Example 59, 2,3-Dihydro-benzofuran-5-carboxylic acid [2-(3-methoxy-piperidin-1-yl)-benzooxazol-5-yl]-amide], 731 nM.
As for `CN(C)CC1CCN(c2nc3cc(NC(=O)c4ccc5c(c4)CCO5)ccc3o2)C1` (stereo not shown) [Example 60, 2,3-Dihydro-benzofuran-5-carboxylic acid [2-(3-dimethylaminomethyl-pyrrolidin-1-yl)-benzooxazol-5-yl]-amide], the IC50 was found to be 1670 nM.
The figure for `CN(C)CC1CCCN1c1nc2cc(NC(=O)c3ccc4c(c3)CCO4)ccc2o1` (stereo not shown) [Example 61, 2,3-Dihydro-benzofuran-5-carboxylic acid [2-(2-dimethylaminomethyl-pyrrolidin-1-yl)-benzooxazol-5-yl]-amide] is 5240 nM.
On to `O=C(Nc1ccc2oc(N(C3CC3)C3COC3)nc2c1)c1ccc2c(c1)CCO2` [Example 63, 2,3-Dihydro-benzofuran-5-carboxylic acid [2-(cyclopropyl-oxetan-3-yl-amino)-benzooxazol-5-yl]-amide], for which the concentration for half-maximal inhibition (IC50) came to 359 nM.
For `O=C(Nc1ccc2oc(N3CC(N4CCCC4)C3)nc2c1)c1ccc2c(c1)CCO2` [Example 64, 2,3-Dihydro-benzofuran-5-carboxylic acid [2-(3-pyrrolidin-1-yl-azetidin-1-yl)-benzooxazol-5-yl]-amide], the IC50 was 2130 nM.
The figure for `CC(C)(O)C1CN(c2nc3cc(NC(=O)c4ccc5c(c4)CCO5)ccc3o2)C1` [Example 65, 2,3-Dihydro-benzofuran-5-carboxylic acid {2-[3-(1-hydroxy-1-methyl-ethyl)-azetidin-1-yl]-benzooxazol-5-yl}-amide] is 851 nM; for `CN(C)CC1CN(c2nc3cc(NC(=O)c4ccc5c(c4)CCO5)ccc3o2)C1` [Example 66, 2,3-Dihydro-benzofuran-5-carboxylic acid [2-(3-dimethylaminomethyl-azetidin-1-yl)-benzooxazol-5-yl]-amide] it is 4170 nM.
In the case of `CN1CCC2(CC1)CCN2c1nc2cc(NC(=O)c3ccc4c(c3)CCO4)ccc2o1` [Example 67, 2,3-Dihydro-benzofuran-5-carboxylic acid [2-(7-methyl-1,7-diaza-spiro[3.5]non-1-yl)-benzooxazol-5-yl]-amide], the IC50 is 3080 nM.
Turning to `CN1CCC2(CC1)CN(c1nc3cc(NC(=O)c4ccc5c(c4)CCO5)ccc3o1)C2` [Example 68, 2,3-Dihydro-benzofuran-5-carboxylic acid [2-(7-methyl-2,7-diaza-spiro[3.5]non-2-yl)-benzooxazol-5-yl]-amide], the IC50 was 1790 nM.
The result for `CN(C)C1CN(c2nc3cc(NC(=O)c4ccc5c(c4)CCO5)ccc3o2)C1` [Example 69, 2,3-Dihydro-benzofuran-5-carboxylic acid [2-(3-dimethylamino-azetidin-1-yl)-benzooxazol-5-yl]-amide] reads 1930 nM.
Turning to `O=C(Nc1ccc2oc(N3CC4(C3)CS(=O)(=O)C4)nc2c1)c1ccc2c(c1)CCO2` [Example 70, 2,3-Dihydro-benzofuran-5-carboxylic acid [2-(2,2-dioxo-2l6-thia-6-aza-spiro[3.3]hept-6-yl)-benzooxazol-5-yl]-amide], the concentration for half-maximal inhibition (IC50) was found to be 889 nM.
The figure for `O=C(Nc1ccc2oc(N3CCC34CCOC4)nc2c1)c1ccc2c(c1)CCO2` (stereo not shown) [Example 71, 2,3-Dihydro-benzofuran-5-carboxylic acid [2-(6-oxa-1-aza-spiro[3.4]oct-1-yl)-benzooxazol-5-yl]-amide] is 336 nM.
The result for `O=C(Nc1ccc2oc(N3CC4(CCS4(=O)=O)C3)nc2c1)c1ccc2c(c1)CCO2` [Example 72, 2,3-Dihydro-benzofuran-5-carboxylic acid [2(1,1-dioxo-1l6-thia-6-aza-spiro[3.3]hept-6-yl)-benzooxazol-5-yl]-amide] reads 524 nM; that for `CN(C)C1(C)CN(c2nc3cc(NC(=O)c4ccc5c(c4)CCO5)ccc3o2)C1` [Example 73, 2,3-Dihydro-benzofuran-5-carboxylic acid [2-(3-dimethylamino-3-methyl-azetidin-1-yl)-benzooxazol-5-yl]-amide], 4100 nM.
The figure for `O=C(Nc1ccc2oc(N3CC4(CCOC4)C3)nc2c1)c1ccc2c(c1)CCO2` [Example 74, 2,3-Dihydro-benzofuran-5-carboxylic acid [2-(6-oxa-2-aza-spiro[3.4]oct-2-yl)-benzooxazol-5-yl]-amide] is 1080 nM; for `CN1CCN(c2nc3cc(C(=O)Nc4ccc5c(c4)CCO5)ccc3o2)CC1` [Example 75, 2-(4-Methyl-piperazin-1-yl)-benzooxazole-5-carboxylic acid (2,3-dihydro-benzofuran-5-yl)-amide] it is 421 nM; for `O=C(Nc1ccc2c(c1)CCO2)c1ccc2oc(N3CCCCC3)nc2c1` [Example 76, 2-Piperidin-1-yl-benzooxazole-5-carboxylic acid (2,3-dihydro-benzofuran-5-yl)-amide] it is 414 nM.
